Measured values published in ChEMBL document CHEMBL1201862, “PubChem BioAssay data set” (2004).
Calls of active or inactive are those of the source.

Legend:
[1] = biological target: Long-chain-fatty-acid--AMP ligase FadD28 (Mycobacterium tuberculosis, UniProt P9WQ59); experiment: Fluorescence polarization aasay to screen for inhibitors that compete for the binding of FadD28 to a bisubstrate Measured in Biochemical System Using Plate Reader - 2147-01_Inhibitor_Dose_CherryPick_Activity.; format: functional, Mycobacterium tuberculosis H37Rv
Beta-lactamase [2] = biological target: T1, Beta-lactamase (Pseudomonas aeruginosa, UniProt Q79MP6); experiment: IMP-1 metallo-beta-lactamase inhibitors, dose response, selectivity assay for VIM-2 inhibitor project, biochemical, epi-absorbance (AID 1920)
Beta-lactamase [3] = biological target: T1, Beta-lactamase; experiment: […] counterscreen for selective VIM-2 inhibitors: dose response biochemical high throughput screening assay to identify inhibitors of IMP-1 metallo-beta-lactamase.
Beta-lactamase [4] = biological target: Beta-lactamase (Salmonella choleraesuis (strain SC-B67), UniProt Q5J463); experiment: Epi-absorbance-based counterscreen for selective VIM-2 inhibitors: dose response biochemical high throughput screening assay to identify inhibitors of TEM-1 serine-beta-lactamase.
[5] = biological target: T2, Ubiquitin-conjugating enzyme E2 N (Homo sapiens, UniProt P61088); format: functional
T2 sequence (P61088 whole entry): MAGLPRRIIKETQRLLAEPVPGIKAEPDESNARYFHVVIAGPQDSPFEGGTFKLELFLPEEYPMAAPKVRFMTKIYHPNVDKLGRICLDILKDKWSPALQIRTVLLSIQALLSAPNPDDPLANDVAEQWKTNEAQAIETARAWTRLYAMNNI

[6] = biological target: T2, Ubiquitin-conjugating enzyme E2 N; format: functional; remark: listed apart in the source
Bcl-2-related protein A1 = biological target: T3, Bcl-2-related protein A1 (Mus musculus, UniProt Q07440); format: functional;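 also: confirmatory dose–response counterscreen on Bfl-1, used to check hits from a UBC13 polyubiquitin inhibitor campaign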
T3 sequence (Q07440 whole entry): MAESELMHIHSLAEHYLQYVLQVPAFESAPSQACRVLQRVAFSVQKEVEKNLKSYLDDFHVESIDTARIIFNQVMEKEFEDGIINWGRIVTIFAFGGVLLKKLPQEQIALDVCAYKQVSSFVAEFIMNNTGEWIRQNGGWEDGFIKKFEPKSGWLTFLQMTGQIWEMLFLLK

[7] = biological target: Arf-GAP with SH3 domain, ANK repeat and PH domain-containing protein 1 (Homo sapiens, UniProt Q9ULH1); format: functional;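 also: biochemical fluorescence polarization dose–response screen measuring inhibition of ASAP1; ASAP1 GAP domain stimulating GTP hydrolysis by truncated human ARF1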
[8] = human group III sPLA2 inhibitors, dose response, biochemical, QFRET, IC50 (AID 743457);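 also: green fluorescence rise as the enzyme cleaves BODIPY PC-A2 in liposomes; potency for inhibition of the enzyme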
[9] = biological target: T4, Sentrin-specific protease 8 (Homo sapiens, UniProt Q96LD8); format: functional
T4 sequence (Q96LD8 whole entry): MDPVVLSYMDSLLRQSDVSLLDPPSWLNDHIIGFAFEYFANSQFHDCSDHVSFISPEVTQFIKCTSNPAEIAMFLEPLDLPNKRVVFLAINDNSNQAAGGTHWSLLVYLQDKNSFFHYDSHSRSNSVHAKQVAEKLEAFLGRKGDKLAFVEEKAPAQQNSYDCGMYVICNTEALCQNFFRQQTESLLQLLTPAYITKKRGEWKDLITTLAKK

[10] = biological target: T4, Sentrin-specific protease 8; format: functional; remark: listed apart in the source
[11] = biological target: Mitochondrial peptide methionine sulfoxide reductase (Bos taurus, UniProt P54149); format: functional;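 also: absorbance read-out, biochemical high-throughput dose-response screen for MsrA inhibitors, confirmatory; recombinant bovine MsrA coupled to E. coli TrxB with NADPH and selenocystamine; potency is for inhibitors of MsrA activity on DMSO substrate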
[12] = MC4R antagonists, dose response, counter-screen for LGR2 antagonist project, cell-based, plate reader, cherry pick (AID 743444); format: functional;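 also: transfected HEK 293 cells stimulated with alpha-MSH peptide; potency of inhibitors of the alpha-MSH evoked signal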
[13] = HepG2 cell cytotoxicity, dose response, cytotoxicity control, plate reader, cherry-pick, antagonist series (AID 743416); format: functional, cell-based
[14] = LGR2 antagonists, dose response, cell-based, HEK293, CRE-luciferase reporter, cherry pick, set 2 (AID 743343); format: functional;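 also: transfected cells were stimulated with diluted bursicon conditioned medium after compound addition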
[15] = HEK293 cell cytotoxicity, dose response, cytotoxicity control, plate reader, cherry-picked samples (AID 743446); format: functional, cell-based
[16] = A549 cell cytotoxicity, dose response, cytotoxicity control, plate reader, cherry-pick, antagonist series (AID 743412); format: functional, cell-based
[17] = non-specific cell cytotoxicity, dose response, cytotoxicity control for PAX8 inhibitor project, plate reader, dry powder samples (AID 743021); format: functional, cell-based
[18] = biological target: Glucose-6-phosphate 1-dehydrogenase (Homo sapiens, UniProt P11413); experiment: human G6PD enzyme inhibitors, dose response, selectivity assay for P. falciparum G6PD inhibitor project, biochemical, fluorescence (AID 504792); format: functional
Paired box protein Pax-8 = Paired box protein Pax-8 (Homo sapiens, UniProt Q06710); experiment: inhibitors of PAX8-driven TPO luciferase reporter, dose response, RMG-I cells, cherry-pick (AID 687027); format: functional, cell-based;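 also: luciferase reporter driven by Pax8 target thyroperoxidase promoter measured by SteadyGlo luminescence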
[19] = HEp-2 cell cytotoxicity, dose response, cytotoxicity control for RSV inhibitor project, HTS (AID 2410); format: functional; settings: human respiratory syncytial virus
Beta-galactosidase = Beta-galactosidase (Escherichia coli, UniProt Q8VNN2); experiment: Dose response counterscreen for EBI2 assay utilizing the enzyme, b-galactosidase.; format: functional
cells [20] = experiment: cells
[21] = biological target: T5, Small ubiquitin-related modifier 2 (Homo sapiens, UniProt P61956); experiment: inhibitors of SUMO2 protein-protein interaction, dose response, selectivity assay for SUMO1 interaction inhibitor project, biochemical, FRET, human SUMO2, uHTS hits (AID 624384); format: functional; settings: read-out: IC50_Mean
[22] = biological target: T5, Small ubiquitin-related modifier 2; experiment: SUMO2–SIM peptide binding inhibitors, dose response, selectivity assay for SUMO1 interaction inhibitor project, biochemical, fluorescence polarization, uHTS hits (AID 624385); format: functional; settings: read-out: IC50_Mean
[23] = biological target: T6, Small ubiquitin-related modifier 1 (Homo sapiens, UniProt P63165); experiment: inhibitors of SUMO1 partner interactions, dose response, biochemical, FRET (AID 624383); format: functional; settings: read-out: IC50_Mean
[24] = biological target: T6, Small ubiquitin-related modifier 1; experiment: inhibitors of SUMO1 peptide binding, dose response, biochemical, fluorescence polarization, uHTS hits (AID 624382); format: functional; settings: read-out: IC50_Mean
cells [25] = format: functional, cell-based
[26] = biological target: T7, Nuclear receptor subfamily 0 group B member 1 (Homo sapiens, UniProt P51843); format: functional, cell-based;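 also: HEK293T cells transfected with SF-1 and DAX-1 plus StAR promoter luciferase reporter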
T7 sequence (P51843 whole entry): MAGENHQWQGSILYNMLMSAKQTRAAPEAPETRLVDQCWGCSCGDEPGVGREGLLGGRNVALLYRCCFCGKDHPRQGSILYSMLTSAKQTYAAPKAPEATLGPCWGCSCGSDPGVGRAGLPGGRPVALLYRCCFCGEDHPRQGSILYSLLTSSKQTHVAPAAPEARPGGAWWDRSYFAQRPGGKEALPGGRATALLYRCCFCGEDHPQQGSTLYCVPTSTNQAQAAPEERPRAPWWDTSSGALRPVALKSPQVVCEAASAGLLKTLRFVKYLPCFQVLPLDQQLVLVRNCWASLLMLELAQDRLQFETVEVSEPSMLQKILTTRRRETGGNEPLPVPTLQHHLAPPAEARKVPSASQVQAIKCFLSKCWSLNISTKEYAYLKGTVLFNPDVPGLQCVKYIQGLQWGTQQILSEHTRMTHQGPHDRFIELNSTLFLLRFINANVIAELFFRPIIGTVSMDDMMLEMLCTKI

[27] = Luminescence-based cell-based high throughput dose response assay to identify activators of the DAF-12 from the parasite S. stercoralis (ssDAF-12).; format: functional
[28] = biological target: T8, Trace amine-associated receptor 1 (Homo sapiens, UniProt Q96RJ0); experiment: Counterscreen for agonists of the human trace amine associated receptor 1 (hTAAR1): Fluorescence-based cell-based high throughput dose response assay to identify hTAAR1 agonist that also desensitize TAAR1 receptor response.; format: functional
cells [29] = format: functional, cell-based; remark: listed apart in the source
[30] = biological target: T8, Trace amine-associated receptor 1; experiment: Fluorescence-based cell-based high throughput dose response assay to identify agonists of the human trace amine associated receptor 1 (TAAR1).; format: functional
cells [31] = format: functional, cell-based; remark: listed apart in the source
Beta Lactamase = Beta Lactamase (Pseudomonas aeruginosa, UniProt Q932Y6); experiment: beta-lactamase reporter inhibitor potency, dose response, artefact control for NOD2-RIPK2 interaction inhibitor project, BLA reporter cells, FRET fluorescence (AID 651552); format: functional, cell-based
[32] = Fluorescence-based cell-based high throughput dose response assay for inhibitors of the interaction of nucleotide-binding oligomerization domain containing 2 (NOD2) and the receptor-interacting serine-threonine kinase 2 (RIPK2).; format: functional; settings: Homo sapiens
[33] = biological target: T9, Scavenger receptor class B member 1 (Mus musculus, UniProt Q61009); experiment: inhibitors of SR-BI dependent HDL uptake, dose response, ldlA[mSR-BI] CHO cells, fluorescence plate reader, dry powder, set 9 (AID 623880); format: functional, cell-based
[34] = biological target: T9, Scavenger receptor class B member 1; experiment: inhibitors of SR-BI-mediated HDL uptake, dose response, cell-based, ldlA[mSR-BI] CHO, DiI fluorescence, dry powder, set 10 (AID 624029); format: functional
[35] = biological target: Potassium channel subfamily K member 3 (Rattus norvegicus, UniProt O54912); experiment: SAR analysis for the identification of selective inhibitors of the two-pore domain potassium channel TASK1(KCNK3):Automated Electrophysiology.; format: functional
[36] = biological target: Potassium channel subfamily K member 9 (Homo sapiens, UniProt Q9NPC2); experiment: TASK3 (KCNK9) channel inhibitors, thallium flux, SAR follow-up, selectivity assay for TASK1 inhibitor project, cell-based, FluxOR thallium flux, concentration-response (AID 652211); format: functional;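 also: potency is for inhibitors of the channel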
[37] = T. cruzi growth inhibition in host cells, dose response, cell-based, plate reader, dry powder, set 2 (AID 652275); format: functional

T5 sequence (P61956 whole entry): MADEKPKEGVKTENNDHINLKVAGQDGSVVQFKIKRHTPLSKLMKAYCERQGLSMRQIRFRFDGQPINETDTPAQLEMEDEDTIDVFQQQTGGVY
T1 sequence (Q79MP6 whole entry): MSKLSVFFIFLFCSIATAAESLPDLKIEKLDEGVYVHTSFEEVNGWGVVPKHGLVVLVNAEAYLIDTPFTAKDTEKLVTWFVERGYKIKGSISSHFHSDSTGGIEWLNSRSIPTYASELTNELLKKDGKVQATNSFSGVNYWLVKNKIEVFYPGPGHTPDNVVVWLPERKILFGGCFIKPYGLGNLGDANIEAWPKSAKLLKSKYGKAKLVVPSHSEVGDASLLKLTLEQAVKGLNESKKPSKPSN
T6 sequence (P63165 whole entry): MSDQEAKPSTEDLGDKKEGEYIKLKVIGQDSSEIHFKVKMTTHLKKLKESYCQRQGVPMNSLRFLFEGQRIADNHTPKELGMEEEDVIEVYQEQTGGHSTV
T8 sequence (Q96RJ0 whole entry): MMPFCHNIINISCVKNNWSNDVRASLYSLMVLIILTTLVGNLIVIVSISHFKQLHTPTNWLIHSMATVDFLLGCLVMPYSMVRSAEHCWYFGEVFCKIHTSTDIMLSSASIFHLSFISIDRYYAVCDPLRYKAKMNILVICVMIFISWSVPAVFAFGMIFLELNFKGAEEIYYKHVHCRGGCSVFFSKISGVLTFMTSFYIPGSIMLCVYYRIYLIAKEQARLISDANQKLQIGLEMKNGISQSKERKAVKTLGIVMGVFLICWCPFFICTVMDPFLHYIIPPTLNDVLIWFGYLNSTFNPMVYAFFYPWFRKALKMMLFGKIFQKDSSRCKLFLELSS
T9 sequence (Q61009 whole entry): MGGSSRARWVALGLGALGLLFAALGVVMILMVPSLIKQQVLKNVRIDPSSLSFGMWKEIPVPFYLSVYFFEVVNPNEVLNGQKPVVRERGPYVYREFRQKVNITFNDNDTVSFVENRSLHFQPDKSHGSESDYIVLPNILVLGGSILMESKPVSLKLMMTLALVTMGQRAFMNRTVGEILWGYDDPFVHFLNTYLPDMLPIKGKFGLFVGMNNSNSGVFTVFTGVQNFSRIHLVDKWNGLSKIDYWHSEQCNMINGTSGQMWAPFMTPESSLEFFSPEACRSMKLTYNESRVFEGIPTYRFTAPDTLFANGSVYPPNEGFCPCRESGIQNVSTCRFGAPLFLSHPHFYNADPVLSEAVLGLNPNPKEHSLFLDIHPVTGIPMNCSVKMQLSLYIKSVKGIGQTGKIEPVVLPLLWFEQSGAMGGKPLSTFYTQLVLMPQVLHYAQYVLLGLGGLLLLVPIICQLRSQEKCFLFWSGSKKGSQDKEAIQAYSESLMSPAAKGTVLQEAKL
Chain of Beta-lactamase (Salmonella choleraesuis (strain SC-B67), UniProt Q5J463) (Q5J463 whole entry): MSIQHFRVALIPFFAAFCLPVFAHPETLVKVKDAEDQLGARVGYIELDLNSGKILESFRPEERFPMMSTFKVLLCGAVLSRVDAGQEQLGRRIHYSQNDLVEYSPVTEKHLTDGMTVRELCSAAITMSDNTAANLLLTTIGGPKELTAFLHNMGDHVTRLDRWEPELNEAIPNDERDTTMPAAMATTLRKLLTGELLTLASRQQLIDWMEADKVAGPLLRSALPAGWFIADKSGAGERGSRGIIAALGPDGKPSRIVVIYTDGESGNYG
Chain of Potassium channel subfamily K member 9 (Q9NPC2 whole entry): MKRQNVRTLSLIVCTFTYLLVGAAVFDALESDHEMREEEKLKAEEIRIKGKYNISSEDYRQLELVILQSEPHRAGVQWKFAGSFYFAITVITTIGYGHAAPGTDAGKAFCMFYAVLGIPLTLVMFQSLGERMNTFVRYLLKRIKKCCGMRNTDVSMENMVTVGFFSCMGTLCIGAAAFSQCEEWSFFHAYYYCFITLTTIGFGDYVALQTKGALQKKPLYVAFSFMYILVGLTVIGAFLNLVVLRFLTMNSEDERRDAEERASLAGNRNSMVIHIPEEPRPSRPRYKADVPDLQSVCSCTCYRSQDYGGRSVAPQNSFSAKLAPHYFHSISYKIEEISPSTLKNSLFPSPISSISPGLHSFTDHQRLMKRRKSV
Chain of Beta Lactamase (Q932Y6 whole entry, the tested form may be a part): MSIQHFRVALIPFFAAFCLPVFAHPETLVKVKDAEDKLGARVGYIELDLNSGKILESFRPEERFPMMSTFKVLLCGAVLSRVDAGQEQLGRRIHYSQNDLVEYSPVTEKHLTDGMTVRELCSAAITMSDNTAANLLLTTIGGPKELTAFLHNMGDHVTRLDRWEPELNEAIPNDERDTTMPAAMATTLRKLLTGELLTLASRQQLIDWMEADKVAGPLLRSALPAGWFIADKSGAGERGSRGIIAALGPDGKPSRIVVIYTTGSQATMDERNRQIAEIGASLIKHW
Chain of Beta-galactosidase (Q8VNN2 whole entry): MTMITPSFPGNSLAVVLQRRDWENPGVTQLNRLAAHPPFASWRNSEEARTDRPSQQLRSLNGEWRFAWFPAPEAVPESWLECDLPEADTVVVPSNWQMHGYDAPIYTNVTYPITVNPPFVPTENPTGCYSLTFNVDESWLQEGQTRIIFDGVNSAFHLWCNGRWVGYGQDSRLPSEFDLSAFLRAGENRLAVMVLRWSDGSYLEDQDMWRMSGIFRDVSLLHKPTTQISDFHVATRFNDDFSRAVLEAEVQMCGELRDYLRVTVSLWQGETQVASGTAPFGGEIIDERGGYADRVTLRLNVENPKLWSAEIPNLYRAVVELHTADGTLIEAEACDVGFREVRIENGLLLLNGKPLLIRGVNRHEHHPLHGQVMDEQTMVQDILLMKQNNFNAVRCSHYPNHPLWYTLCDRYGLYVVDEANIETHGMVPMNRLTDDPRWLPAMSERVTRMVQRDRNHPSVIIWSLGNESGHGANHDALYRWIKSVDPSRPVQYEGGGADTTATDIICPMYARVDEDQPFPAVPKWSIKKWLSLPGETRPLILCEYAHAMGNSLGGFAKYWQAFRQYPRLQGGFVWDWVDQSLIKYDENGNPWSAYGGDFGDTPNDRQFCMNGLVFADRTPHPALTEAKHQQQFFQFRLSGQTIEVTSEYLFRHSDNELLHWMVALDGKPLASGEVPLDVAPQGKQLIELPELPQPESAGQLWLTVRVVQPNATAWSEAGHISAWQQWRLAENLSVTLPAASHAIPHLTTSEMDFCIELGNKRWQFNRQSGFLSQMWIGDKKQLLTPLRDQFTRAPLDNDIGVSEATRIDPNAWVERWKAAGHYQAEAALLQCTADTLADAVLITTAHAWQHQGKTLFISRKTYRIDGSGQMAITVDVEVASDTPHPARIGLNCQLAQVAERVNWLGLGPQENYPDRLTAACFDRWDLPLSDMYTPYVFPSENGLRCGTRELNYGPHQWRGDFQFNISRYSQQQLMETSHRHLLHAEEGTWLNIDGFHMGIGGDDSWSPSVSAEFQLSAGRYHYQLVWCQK
Chain of Long-chain-fatty-acid--AMP ligase FadD28 (P9WQ59 whole entry): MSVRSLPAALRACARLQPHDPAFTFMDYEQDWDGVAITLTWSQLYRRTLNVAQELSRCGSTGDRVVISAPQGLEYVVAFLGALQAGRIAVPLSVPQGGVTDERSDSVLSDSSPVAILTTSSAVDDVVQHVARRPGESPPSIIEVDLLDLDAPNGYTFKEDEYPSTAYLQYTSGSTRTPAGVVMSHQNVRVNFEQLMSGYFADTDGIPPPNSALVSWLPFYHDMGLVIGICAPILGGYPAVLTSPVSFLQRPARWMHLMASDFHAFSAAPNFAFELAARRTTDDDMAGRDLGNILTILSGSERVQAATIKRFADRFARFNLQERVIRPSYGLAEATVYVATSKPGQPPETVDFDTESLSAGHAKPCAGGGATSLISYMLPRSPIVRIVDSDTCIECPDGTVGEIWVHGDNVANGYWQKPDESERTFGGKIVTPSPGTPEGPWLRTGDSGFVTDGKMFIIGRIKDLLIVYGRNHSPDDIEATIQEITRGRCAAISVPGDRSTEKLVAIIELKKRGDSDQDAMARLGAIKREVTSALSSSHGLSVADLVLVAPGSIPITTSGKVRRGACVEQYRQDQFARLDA
Chain of Potassium channel subfamily K member 3 (O54912 whole entry, the tested form may be a part): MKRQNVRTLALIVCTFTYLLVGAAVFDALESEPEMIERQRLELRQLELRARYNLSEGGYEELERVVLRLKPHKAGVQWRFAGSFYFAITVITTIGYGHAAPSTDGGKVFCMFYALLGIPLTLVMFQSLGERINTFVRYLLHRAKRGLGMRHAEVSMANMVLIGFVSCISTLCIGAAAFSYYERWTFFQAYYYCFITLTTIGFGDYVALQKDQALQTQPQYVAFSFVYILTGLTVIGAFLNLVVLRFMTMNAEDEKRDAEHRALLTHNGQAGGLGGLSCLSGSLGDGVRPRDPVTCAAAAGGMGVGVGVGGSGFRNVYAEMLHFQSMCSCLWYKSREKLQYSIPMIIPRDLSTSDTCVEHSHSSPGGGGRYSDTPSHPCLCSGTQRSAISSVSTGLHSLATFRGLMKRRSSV
Chain of Paired box protein Pax-8 (Q06710 whole entry): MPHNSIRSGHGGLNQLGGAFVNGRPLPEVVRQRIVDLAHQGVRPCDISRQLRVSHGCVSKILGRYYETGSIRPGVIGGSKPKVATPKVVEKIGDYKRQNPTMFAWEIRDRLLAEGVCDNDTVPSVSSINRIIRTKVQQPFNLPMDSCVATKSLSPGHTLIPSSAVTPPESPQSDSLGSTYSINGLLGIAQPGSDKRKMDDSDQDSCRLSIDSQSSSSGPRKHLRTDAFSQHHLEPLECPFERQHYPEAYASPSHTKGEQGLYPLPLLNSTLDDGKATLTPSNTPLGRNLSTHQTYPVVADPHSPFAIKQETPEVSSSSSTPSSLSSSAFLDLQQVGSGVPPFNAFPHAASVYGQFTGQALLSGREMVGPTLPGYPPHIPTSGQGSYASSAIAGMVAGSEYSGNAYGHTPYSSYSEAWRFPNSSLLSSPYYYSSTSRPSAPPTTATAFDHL

CC(C)(C)c1ccc(NC(=O)Nc2ccc(OCC(=O)N3CCOCC3)cc2)cc1
AC50 [1]: 41.4 µM (active)

Cc1cccc(-n2c(C)nnc2S)c1C
IC50 (Beta-lactamase [2]): > 59.6 µM (inactive) | IC50 (Beta-lactamase [3]): > 59.6 µM (inactive) | IC50 (Beta-lactamase [4]): > 59.6 µM (inactive)

COCCN=C(S)N=Nc1c(O)[nH]c2ccc([N+](=O)[O-])cc12
IC50 [5]: 1.52 µM (active) | IC50 [6]: 6.15 µM (active) | IC50 (Bcl-2-related protein A1): > 20 µM (inactive) | IC50 [7]: 26.8 µM (inactive)

Cc1ccc(NC(S)=NNC(=O)CSc2nnc(-c3ccc(Cl)cc3)n2C2CCCCC2)cc1
IC50 [8]: > 40.6 µM (inactive)

Cn1c(NNC(=O)c2c(F)cccc2F)cc(=O)n(C)c1=O
IC50 [9]: 28 µM (active) | IC50 [10]: 12.5 µM (active)

Cc1ccc(Cl)cc1N=C1C=C(NS(=O)(=O)c2cccs2)c2ccccc2C1=O
IC50 [11]: 155 µM (inactive) | AC50 [12]: 5.09 µM (active) | AC50 [13]: 8 µM (active) | AC50 [14]: 4.71 µM (active) | AC50 [15]: 7.88 µM (active) | AC50 [16]: 10.1 µM (active) | AC50 [17]: 17.2 µM (active) | IC50 [18]: > 80 µM (inactive) | AC50 (Paired box protein Pax-8): 4.82 µM (active)

COc1ccc(-c2cc3nc(-c4ccccc4)cc(N4CCC(O)CC4)n3n2)cc1
CC50 [19]: 17 µM (active) | IC50 (Beta-galactosidase): > 80 µM (inactive) | IC50 (cells [20]): 34.9 µM (active)

COc1ccc(-c2csc(/C(C#N)=C\c3ccc(O)c([N+](=O)[O-])c3)n2)cc1OC
IC50 [21]: > 66 µM (inactive) | IC50 [22]: 35.7 µM (inactive) | IC50 [23]: 52.1 µM (inactive) | IC50 [24]: 51.3 µM (inactive)

C(=Cc1c[nH]c2ccccc12)c1ccc2ccccc2n1
IC50 (cells [25]): > 67.5 µM (inactive) | IC50 [26]: 10.3 µM (inactive) | IC50 [27]: > 67.5 µM (inactive)

CN1CCNC(=O)C1CC(=O)NCCc1ccccc1F (stereo unspecified)
IC50 [28]: 6.6 µM (active) | EC50 (cells [29]): > 29.9 µM (inactive) | EC50 [30]: 2.49 µM (active) | IC50 (cells [31]): > 29.9 µM (inactive)

CC(=O)O/N=C1C=C/C(=C(\C#N)c2ccccc2)C=C/1
IC50 (Beta Lactamase): 49.8 µM (inactive) | IC50 [32]: 5.83 µM (active)

C[C@@H]1CN([C@H](C)CO)C(=O)c2cc(NC(=O)C3CCCCC3)ccc2O[C@H]1CN(C)S(=O)(=O)c1ccc(Cl)cc1
AC50 [33]: 0.0686 µM (active) | AC50 [34]: 0.0616 µM (active)

COc1ccccc1C(=O)Nc1cccc(NC(=O)c2ccccc2OC)c1
IC50 [35]: 0.03 µM (active) | IC50 [36]: 3.62 µM (active)

CN(C)C(=O)c1cccc(-c2ccc([C@H]3[C@@H](CO)N4CCCCN(C(=O)C5CCC5)C[C@@H]34)cc2)c1
AC50 [37]: 1.06 µM (active)
